Where two headings read alike, the source gives them in different places.

One data set concerns the target MMP-13 (Homo sapiens, UniProt P45452). Put plainly: MMP-13 inhibition. Format: biochemical.
In another data set the target is T1, MMP-9 (Homo sapiens, UniProt P14780).
T1 construct: human neutrophil gelatinase B; from tissue; host or cells: human neutrophils
Description: In vitro gelatinase assay (thiopeptide substrate, DTNB). The conditions noted are these: human neutrophil gelatinase B. Format: biochemical. The procedure: In Vitro Gelatinase Assay
The assay is based on the cleavage of the thiopeptide substrate ((Ac-Pro-Leu-Gly(2-mercapto-4-methyl-pentanoyl)-Leu-Gly-OEt), available from Bachem Bioscience) by the enzyme gelatinase, releasing the substrate product which reacts calorimetrically with DTNB ((5,5′-dithio-bis(2-nitro-benzoic acid)). This assay is disclosed in Weingarten et al., “Spectrophotometric Assay for Vertebrate Collegenase”, Anal. Biochem., 147:437-440, (1985). The enzyme activity is measured by the rate of the color increase.
The thiopeptide substrate was made up fresh as a 20 mM stock in 100% DMSO and the DTNB was dissolved in 100% DMSO as a 100 mM stock and stored in the dark at room temperature. The substrate and the DTNB were diluted together to 1 mM with substrate buffer (50 mM HEPES, pH 7.5, 5 mM CaCl2) before use. The stock of human neutrophil gelatinase B was diluted with assay buffer (50 mM HEPES, pH 7.5, 5 mM CaCl2, 0.02% Brij) to a final concentration of 0.15 nM.
The assay buffer, enzyme, DTNB/substrate (500 μM final concentration) and vehicle or inhibitor were added to a 96 well plate (total reaction volume of 200 μl) and the increase in color was monitored spectrophotometrically for 5 minutes at 405 nm on a plate reader.
The increase in OD405 was plotted and the slope of the line was calculated. The slope represents the reaction rate. The linearity of the reaction rate was confirmed (r^2>0.85) and the mean (x±sem) of the control rate was calculated and compared for statistical significance (p<0.05) with drug-treated rates using Dunnett's multiple comparison test.

The next data set concerns the target T2, MMP-1 (Homo sapiens, UniProt P03956).
T2 construct: human recombinant fibroblast collagenase (truncated, mw=18,828)
T2 sequence (P03956 100-269 limits assumed): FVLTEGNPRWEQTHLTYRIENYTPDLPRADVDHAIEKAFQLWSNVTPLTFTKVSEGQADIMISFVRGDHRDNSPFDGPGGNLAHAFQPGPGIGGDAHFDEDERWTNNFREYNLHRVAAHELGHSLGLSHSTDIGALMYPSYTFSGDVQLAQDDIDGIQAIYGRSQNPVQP
Description: In vitro collagenase assay (fluorogenic peptide substrate). It is filed as biochemical. The conditions noted are these: human recombinant fibroblast collagenase. The text has this: In Vitro Collagenase Assay
This assay was based on the cleavage of a peptide substrate ((Dnp-Pro-Cha-Gly-Cys(Me)-His-Ala-Lys(NMa)-NH2), available from Peptide International, Inc.) by collagenase releasing the fluorescent NMa group which was quantitated on the fluorometer as disclosed in Bickett et al., “A High Throughput Fluorogenic Substrate for Interstitial Collagenase (MMP-1) and Gelatinase (MMP-9)”, Anal. Biochem., 212:58-64, (1993). Dnp quenches the NMa fluorescence in the intact substrate.
The assay was run in HCBC assay buffer (50 mM HEPES, pH 7.0, 5 mM Ca^+2, 0.02% Brij, 0.5% Cysteine), with human recombinant fibroblast collagenase (truncated, mw=18,828, from Wyeth-Ayerst Research, Radnor, Pa.). The substrate was dissolved in methanol and stored frozen in 1 mM aliquots. Collagenase was stored frozen in buffer in 25 μM aliquots. In conducting the assay, the substrate was dissolved in HCBC buffer to a final concentration of 10 μM and collagenase to a final concentration of 5 nM. The compounds being examined were dissolved in methanol, DMSO, or HCBC. The methanol and DMSO were diluted in HCBC to <1.0%. The compounds were added to a 96 well plate containing enzyme and the reaction was started by the addition of substrate.
The reaction was read (excitation 340 nm, emission 444 nm) for 10 min. and the increase in fluorescence over time was plotted as a linear line. The slope of the line was calculated representing the reaction rate. The linearity of the reaction rate was confirmed (r^2>0.85). The mean (x±sem) of the control rate was calculated and compared for statistical significance (p<0.05) with drug-treated rates using Dunnett's multiple comparison test.

Another data set has as its target T3, TACE (Homo sapiens, UniProt P78536).
T3 construct: purchased Immunex
Put plainly: Procedure for measuring TACE inhibition (fluorescent peptidyl substrate). Format: biochemical. The method, then: Procedure for Measuring TACE Inhibition
The plates were incubated for 10 minutes at room temperature. The reaction was initiated by addition of a fluorescent peptidyl substrate (final concentration 100 μM) to each well with shaking on a shaker for 5 sec.
The reaction was read (excitation 340 nm, emission 420 nm) for 10 min. and the increase in fluorescence over time was plotted as a linear line. The slope of the line was calculated and this represents the reaction rate. […] The mean (x±sem) of the control rate was calculated and compared for statistical significance (p<0.05) with drug-treated rates using Dunnett's multiple comparison test.

T1 sequence (P14780 94-707): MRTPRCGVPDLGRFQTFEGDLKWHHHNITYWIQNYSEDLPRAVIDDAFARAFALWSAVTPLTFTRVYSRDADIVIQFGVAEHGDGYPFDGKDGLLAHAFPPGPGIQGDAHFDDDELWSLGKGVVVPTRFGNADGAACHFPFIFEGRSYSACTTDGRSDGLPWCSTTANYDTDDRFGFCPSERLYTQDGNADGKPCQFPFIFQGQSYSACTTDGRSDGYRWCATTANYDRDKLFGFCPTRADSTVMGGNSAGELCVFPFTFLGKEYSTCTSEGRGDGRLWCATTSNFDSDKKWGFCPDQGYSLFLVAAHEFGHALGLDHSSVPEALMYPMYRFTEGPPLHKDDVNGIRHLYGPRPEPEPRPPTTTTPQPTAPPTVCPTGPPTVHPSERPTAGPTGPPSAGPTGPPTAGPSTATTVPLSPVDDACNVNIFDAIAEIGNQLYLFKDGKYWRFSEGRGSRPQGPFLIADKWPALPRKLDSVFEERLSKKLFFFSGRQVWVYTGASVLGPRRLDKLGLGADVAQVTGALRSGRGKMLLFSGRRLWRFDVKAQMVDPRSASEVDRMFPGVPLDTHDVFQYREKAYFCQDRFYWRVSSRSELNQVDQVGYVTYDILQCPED
T3 sequence (P78536 215-824): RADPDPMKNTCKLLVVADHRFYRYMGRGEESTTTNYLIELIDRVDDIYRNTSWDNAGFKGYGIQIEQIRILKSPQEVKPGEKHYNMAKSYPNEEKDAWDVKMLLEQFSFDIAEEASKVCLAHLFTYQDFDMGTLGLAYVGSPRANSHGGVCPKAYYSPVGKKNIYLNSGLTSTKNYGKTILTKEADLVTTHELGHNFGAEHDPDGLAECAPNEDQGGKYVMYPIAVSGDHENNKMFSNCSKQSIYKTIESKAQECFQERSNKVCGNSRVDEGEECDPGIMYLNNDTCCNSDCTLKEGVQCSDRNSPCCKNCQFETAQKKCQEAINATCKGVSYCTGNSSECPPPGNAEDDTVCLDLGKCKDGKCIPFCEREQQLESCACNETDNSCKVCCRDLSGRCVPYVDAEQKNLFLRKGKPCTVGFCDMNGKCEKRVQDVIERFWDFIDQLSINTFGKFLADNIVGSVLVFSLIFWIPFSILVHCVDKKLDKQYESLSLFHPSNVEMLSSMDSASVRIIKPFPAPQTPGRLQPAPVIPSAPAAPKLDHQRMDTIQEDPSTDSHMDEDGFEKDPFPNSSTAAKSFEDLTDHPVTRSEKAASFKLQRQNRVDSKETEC

What is called IC50 is the concentration that inhibits the measured activity by half. For `CC#CCOc1ccc(S(=O)(=O)N2Cc3ccccc3N(C(C)=O)CC2C(=O)NO)cc1` (centres unmarked) [Example 1, 1-Acetyl-4-(4-but-2-ynyloxbenzenesulfonyl)-2,3,4,5-tetrahydro-1H-[1,4]benzodiazepine-3-carboxylic acid, hydroxyamide], the IC50 on MMP-13 (read-out: IC50 (nM) MMP-13) worked out at 77 nM; against MMP-9 it was 228 nM; on MMP-1, 835 nM; at TACE (read-out: IC50 (nM) TACE) it was 16 nM.

For the compound `CC#CCOc1ccc(S(=O)(=O)N2Cc3ccccc3N(C(=O)c3cccs3)CC2C(=O)NO)cc1` (centres unmarked) [Example 2, 4-(4-But-2-ynyloxybenzenesulfonyl)-1-(2-thienylcarbonyl)-2,3,4,5-tetrahydro-1H-[1,4]benzodiazepine-3-carboxylic acid, hydroxyamide], the IC50 on MMP-13 (read-out: IC50 (nM) MMP-13) was 8 nM; on MMP-9, 24 nM; at MMP-1 it was 250 nM; on TACE (read-out: IC50 (nM) TACE), 38 nM.

With `CC#CCOc1ccc(S(=O)(=O)N2Cc3ccccc3N(C(=O)c3ccccc3)CC2C(=O)NO)cc1` (centres unmarked) [Example 3, 1-Benzoyl-4-(4-but-2-ynyloxybenzenesulfonyl)-2,3,4,5-tetrahydro-1H-[1,4]-benzodiazepine-3-carboxylic acid, hydroxyamide], the IC50 on MMP-13 (read-out: IC50 (nM) MMP-13) amounted to 10 nM.

One may read the melting point as the temperature of the solid-liquid transition. Turning to `CC#CCOc1ccc(S(=O)(=O)N2Cc3ccccc3N(C(=O)c3ccco3)CC2C(=O)NO)cc1` (centres unmarked) [Example 57, 4-(4-But-2-ynyloxybenzenesulfonyl)-1-(2-furanylcarbonyl)-2,3,4,5-tetrahydro-1H-[1,4]benzodiazepine-3-carboxylic acid hydroxyamide], the melting point was 119 to 120 °C. The same compound gave a concentration for half-maximal inhibition (IC50) against MMP-13 of 7 nM. Further, at MMP-9, the IC50 was determined as 2 nM. The IC50 at MMP-1 amounted to 125 nM. The IC50 at TACE worked out at 33 nM.

With `CC#CCOc1ccc(S(=O)(=O)N2Cc3ccccc3N(C(=O)C3CC3)CC2C(=O)NO)cc1` (centres unmarked) [Example 58, 1-Cyclopropylcarbonyl-4-(4-but-ynyloxybenzenesulfonyl)-2,3,4,5-tetrahydro-1H-[1,4]benzodiazepine-3-carboxylic acid, hydorxyamide], the IC50 on MMP-13 (read-out: IC50 (nM) MMP-13) is 29 nM; against MMP-9, 33 nM; at MMP-1, 841 nM.

(Values after patent US6544984B1, “2,3,4,5-tetrahydro-1H-(1,4)benzodiazepine-3-hydroxamic acids” (American Cyanamid Company, priority 1999, dated 2003).)
